Earlier results as cited in patent US20120078160A1, “METHOD AND APPARATUS FOR CANCER THERAPY” (Gradiant Research, LLC, priority 2009, published 2012).

pKa: 7.93
Koct, octanol water partition coefficient (pH 7.4): 0.129
Compound: O=c1[nH]cc(F)c(=O)[nH]1 [5FU, 5-fluorouracil]
